Source: patent US8759323B2, “Protein phosphatase inhibitor” (LSIP, LLC, priority 2008, dated 2014)
Read-outs that look alike come from different tables or passages of the source.

Legend:
Format in all cases: biochemical
[1] = target: T1, PPM1D protein catalytic domain (positions 1 to 420), His tag fusion (Homo sapiens, UniProt O15297); assay: PPM1D-inhibitory activity, single concentration (Test Example 1, BIOMOL GREEN free phosphate); parameters: dose or concentration left out as unconfirmed; details: read-out: Rate of PPM1D inhibition (: %)
T1 construct: the catalytic domain (the positions 1 to 420) of PPM1D protein; His tag; made in house; host or cells: E. coli (pColdI vector)
T1 sequence (O15297 1-420): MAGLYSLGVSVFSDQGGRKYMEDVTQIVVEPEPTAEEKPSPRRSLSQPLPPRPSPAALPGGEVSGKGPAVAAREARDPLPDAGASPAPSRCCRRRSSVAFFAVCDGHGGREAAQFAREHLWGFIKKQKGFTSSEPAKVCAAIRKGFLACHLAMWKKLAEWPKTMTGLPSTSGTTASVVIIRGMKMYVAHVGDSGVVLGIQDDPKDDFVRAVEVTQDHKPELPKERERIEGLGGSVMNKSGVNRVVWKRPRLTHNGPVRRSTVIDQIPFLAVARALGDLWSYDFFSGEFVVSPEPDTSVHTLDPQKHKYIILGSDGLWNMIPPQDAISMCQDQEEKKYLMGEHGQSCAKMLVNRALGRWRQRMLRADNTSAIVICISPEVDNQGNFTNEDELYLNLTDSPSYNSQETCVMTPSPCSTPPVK
Method: The PPM1D-inhibitory activity of the compound of the present invention (1) was measured.
Into a pColdI vector (TaKaRa Bio Inc.), cDNA encoding the catalytic domain (the positions 1 to 420) of PPM1D protein (Protein ID: O15297/cDNA ID: U70385) was introduced, and the PPM1D protein was expressed in E. coli as a His tag fusion protein. The protein of interest was purified by metal affinity chromatography with BD-TALON resin (CLONTECH), and then eluted with an elution buffer (150 mM imidazole, PBS (pH 7.5), 500 mM NaCl, 10% glycerol, 0.2% ethanol, and 1 mM 2-mercaptoethanol). The PPM1D protein thus eluted was dialyzed against a dialysis buffer (50 mM Tris-HCl (pH 7.5), 0.1 mM EGTA, and 0.02% 2-mercaptoethanol) for 16 hours, and then stored at −80° C. as a 50% glycerol stock (an enzyme concentration of 1 μM).
The enzyme that was expressed and purified by the aforementioned method was used for analysis of the inhibitory effect of the compound on PPM1D. […] A purified phospho-p53 peptide was dissolved in H2O to prepare a 400 μM original substrate solution. The test compound of Example 1 (inhibitor) was dissolved in ethanol (EtOH) to a concentration of 40 mM, and then diluted with dimethyl sulfoxide (DMSO) to adjust an original inhibitor solution with a concentration of 4 mM in advance. Other inhibitors were dissolved in dimethyl sulfoxide (DMSO) to prepare original inhibitor solutions with a concentration of 4 mM. 30 μL of a mixed solution of the inhibitor and the substrate (66.7 μM phosphorylated peptide substrate, […], 1.7% DMSO (in the case of Example 1, 1.5% DMSO and 0.2% EtOH), and 13 mM Tris-HCl (pH 8.0)) was kept warm at 30° C., to which 20 μL of a mixed solution of an enzyme and a metal ion kept at 4° C. (10 nM PPM1D, 125 mM Tris-HCl (pH 7.5), 0.25 mM EGTA, 0.05% 2-mercaptoethanol, and 75 mM MgCl2) was added. The resulting mixture was incubated at 30° C. for 10 minutes, and then the inhibitory activity on PPM1D was measured. The enzyme reaction was terminated with addition of 100 μL of a BIOMOL GREEN reagent (Biomol), and 30 minutes later, the absorbance at 620 nm was measured to detect phosphoric acid freed by PPM1D. The inhibitory effect on PPM1D was analyzed by measuring, from the absorbance measured at 620 nm, the amount of free phosphoric acid reduced due to the addition of the inhibitor with respect to the amount of free phosphoric acid in the case of addition of DMSO not including the inhibitor.

PP2A = target: T2, PP2A (Homo sapiens, UniProt P67775); assay: PP2A inhibitory activity (Test Example 2); details: with addition of 40 μM inhibitor
T2 construct: purchased Promega K.K
T2 sequence (P67775 whole entry): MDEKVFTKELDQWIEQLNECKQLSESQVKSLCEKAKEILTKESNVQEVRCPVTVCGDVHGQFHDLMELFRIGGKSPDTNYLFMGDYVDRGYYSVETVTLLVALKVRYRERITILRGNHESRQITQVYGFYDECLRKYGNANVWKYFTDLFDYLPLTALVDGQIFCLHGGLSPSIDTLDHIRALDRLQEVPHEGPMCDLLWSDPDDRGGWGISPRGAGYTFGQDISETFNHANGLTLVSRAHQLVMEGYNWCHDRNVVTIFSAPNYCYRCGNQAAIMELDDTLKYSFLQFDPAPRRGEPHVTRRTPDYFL
T2 sequence (P30153 2-589 partner limits assumed): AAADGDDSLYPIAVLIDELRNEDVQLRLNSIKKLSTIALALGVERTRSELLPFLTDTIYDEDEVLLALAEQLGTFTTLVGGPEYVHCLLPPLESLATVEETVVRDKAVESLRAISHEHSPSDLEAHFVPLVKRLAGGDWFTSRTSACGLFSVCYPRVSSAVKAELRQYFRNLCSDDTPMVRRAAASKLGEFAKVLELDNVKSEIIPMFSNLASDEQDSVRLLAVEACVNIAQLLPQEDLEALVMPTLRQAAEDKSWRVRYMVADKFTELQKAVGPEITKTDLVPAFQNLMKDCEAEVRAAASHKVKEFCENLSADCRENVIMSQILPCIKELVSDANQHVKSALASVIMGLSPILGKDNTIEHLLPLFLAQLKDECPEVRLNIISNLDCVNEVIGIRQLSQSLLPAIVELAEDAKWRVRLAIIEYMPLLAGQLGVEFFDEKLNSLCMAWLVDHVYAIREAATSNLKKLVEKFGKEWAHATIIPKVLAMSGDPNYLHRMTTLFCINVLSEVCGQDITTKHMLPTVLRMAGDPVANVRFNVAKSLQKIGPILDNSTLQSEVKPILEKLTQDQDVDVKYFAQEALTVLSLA
Method: Also, in order to analyze the enzyme selectivity of the inhibitor within the Ser/Thr phosphatase family, the inhibitory effect on PP2A (Protein ID: P67775/cDNA ID: X12649), which belongs to the PPP family, was analyzed. PP2A was purchased from Promega K.K. As a substrate of PP2A, a phospho-p38 peptide analog (Ac-Thr-Asp-Asp-Glu-Met-Thr(P)-Gly-Tyr-Val-Ala-Thr-NH2: Thr(P) indicates phosphorylated Thr) was used. 30 μL of a mixed solution of the inhibitor and the substrate (333.3 μM phosphorylated peptide substrate, each concentration of the inhibitor, 1.7% DMSO (in the case of Example 1, 1.5% DMSO and 0.2% EtOH), and 13 mM Tris-HCl (pH 8.0)) was kept warm at 30° C., to which 20 μL of a mixed solution of an enzyme and a metal ion kept at 4° C. (25 mU PP2A, 125 mM Tris-HCl (pH 7.5), 0.25 mM EGTA, 0.05% 2-mercaptoethanol, and 75 mM MgCl2) was added. The resulting mixture was incubated at 30° C. for 10 minutes, and then the inhibitory activity on PP2A was measured.
The inhibitory activity on PPM1A, PP2A, and PPM1D at each final concentration of the inhibitor (0, 0.1, 0.2, 0.4, 1, 2, 4, 10, or 40 μM) was measured three times with respect to each concentration, and the concentration of the inhibitor required for 50% inhibition of the enzyme activity (IC50) was determined. […]

[2] = target: T3, full length PPM1A (382 residues) (Homo sapiens, UniProt P35813); assay: PPM1A inhibitory activity (Test Example 2); details: 16 nM PPM1A, phospho-p38 peptide analog substrate, MnCl2
T3 construct: cDNA encoding full length PPM1A (382 residues); His tag (inferred: same pColdI vector, purified like His-PPM1D); made in house; host or cells: E. coli (pColdI vector)
T3 sequence (P35813 1-382): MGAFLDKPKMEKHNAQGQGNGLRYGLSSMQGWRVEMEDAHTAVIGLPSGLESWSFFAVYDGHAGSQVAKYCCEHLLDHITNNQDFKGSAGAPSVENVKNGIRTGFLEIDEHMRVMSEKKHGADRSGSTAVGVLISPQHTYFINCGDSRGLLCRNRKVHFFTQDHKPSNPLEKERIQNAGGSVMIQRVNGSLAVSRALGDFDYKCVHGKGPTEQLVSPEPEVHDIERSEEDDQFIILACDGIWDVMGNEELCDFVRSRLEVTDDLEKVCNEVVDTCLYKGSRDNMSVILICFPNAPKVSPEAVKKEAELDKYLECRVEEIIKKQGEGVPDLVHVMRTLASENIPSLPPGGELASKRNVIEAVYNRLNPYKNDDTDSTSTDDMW
Method: In order to analyze the enzyme selectivity of the inhibitor, the inhibitory effect on PPM1A, which belongs to the PPM1 family as PPM1D does, was analyzed and compared with the inhibitory effect on PPM1D. Into a pColdI vector, cDNA encoding full length PPM1A (382 residues) (Protein ID: P35813/cDNA ID: S87759) was introduced, and the PPM1A was expressed in E. coli and then purified similarly to PPM1D. The inhibitory activity on 16 nM purified PPM1A was measured. As a substrate of PPM1A, a phospho-p38 peptide analog (Ac-Asp-Asp-Glu-Nle-Thr(P)-Gly-Tyr(P)-Val-Ala-Thr-Arg-NH2: Thr(P), Tyr(P), and Nle indicate phosphorylated Thr, phosphorylated Tyr, and norleucine, respectively) was used.
30 μL of a mixed solution of the inhibitor and the substrate (66.7 μM phosphorylated peptide substrate, each concentration of the inhibitor, 1.7% DMSO (for the test compound of Example 1, 1.5% DMSO and 0.2% EtOH), and 13 mM Tris-HCl (pH 8.0)) was kept warm at 30° C., to which 20 μL of a mixed solution of an enzyme and a metal ion kept at 4° C. (40 nM PPM1A, 125 mM Tris-HCl (pH 7.5), 0.25 mM EGTA, 0.05% 2-mercaptoethanol, and 25 mM MnCl2) was added. The resulting mixture was incubated at 30° C. for 10 minutes, and then the inhibitory activity on PPM1A was measured. […]

PPM1D = target: T4, PPM1D (Homo sapiens, UniProt O15297); assay: PPM1D IC50, inhibition constant (Ki) and selectivity (Test Example 2); details: for Ki: PPM1D, phospho-p53 (Ser 15) peptide analog substrate 5-40 μM; for IC50: inhibitor 0-40 μM, measured three times
T4 construct: the catalytic domain (the positions 1 to 420) of PPM1D protein; His tag; made in house; host or cells: E. coli (pColdI vector)
T4 sequence (O15297 1-420): T1 sequence (O15297 1-420)
Method: The inhibitory activity on PPM1A, PP2A, and PPM1D at each final concentration of the inhibitor (0, 0.1, 0.2, 0.4, 1, 2, 4, 10, or 40 μM) was measured three times with respect to each concentration, and the concentration of the inhibitor required for 50% inhibition of the enzyme activity (IC50) was determined.
The original inhibitor solution was diluted with a solvent (DMSO, (for the test compound of Example 1, 90% DMSO and 10% EtOH)) to prepare each concentration of an inhibitor solution.
Other conditions for measurement of the enzyme activity are the same as those in Test Example 1.
The enzyme selectivity of the inhibitor was analyzed by comparing the IC50 values of the inhibitor on PPM1D, PPM1A, and PP2A.
Also, the inhibition constant of the inhibitor (Ki) and the inhibition pattern were measured as follows.
As a substrate, a phospho-p53 (Ser 15) peptide analog (Ac-Val-Glu-Pro-Pro-Leu-Ser(P)-[…]NH2: Ser(P) indicates phosphorylated Ser) was used. 30 μL of a mixed solution of the inhibitor and the substrate (each concentration of the phosphorylated peptide substrate, each concentration of the inhibitor, 1.7% DMSO (in the case of Example 1, 1.5% DMSO and 0.2% EtOH), and 13 mM Tris-HCl (pH 8.0)) was kept warm at 30° C., to which 20 μL of a mixed solution of an enzyme and a metal ion kept at 4° C. (10 nM PPM1D, 125 mM Tris-HCl (pH 7.5), 0.25 mM EGTA, 0.05% 2-mercaptoethanol, and 75 mM MgCl2) was added. The resulting mixture was incubated at 30° C. for 10 minutes, and then the inhibitory activity on PPM1D was measured.
The activity on PPM1D was measured at each concentration of the phosphorylated peptide substrate (5, 10, 20, and 40 μM), and at each final concentration of the inhibitor (0, 0.3, 0.4, and 0.6 μM (the compound of Example 1 [Compound 1]) or 0, 0.4, and 1.2 μM (the compound of Example 5 [Compound 2]). The enzyme reaction was terminated with addition of 50 μL of a BIOMOL GREEN reagent (Biomol) to a reaction solution, and 30 minutes later, the absorbance at 620 nm was measured to detect phosphoric acid freed by PPM1D.
Based on the results thus obtained, Ki (μM) was calculated.

[3] = phospho-p53 (Ser 15) peptide substrate, 30° C., 10 minutes, read-out: Rate of PPM1D inhibition (%)

Structure (SMILES)	inhibition [1, 3] [%]	inhibition [1] [%]	other results
C[C@H]1C[C@@H](O)[C@H]2C[C@H](O[Si](C)(C)C(C)(C)C)[C@@H]3[C@](C)(CO)C[C@H](O)C[C@@]3(C)[C@@H]2C1 [Example 4]	–	25.1	–
CSC(C)(CO[Si](C(C)C)(C(C)C)C(C)C)S(=O)(=O)c1ccc(C)cc1 (stereo not shown) [Example 11]	–	33.7 ± 4.78	–
CC(C)[Si](OCCCC#CCO)(C(C)C)C(C)C [Example 10]	–	35.4 ± 2.18	–
COC(=O)[C@]1(C)CC(=O)C[C@]2(C)[C@@H]3C[C@@H](C)C[C@@H](OC(C)=O)[C@H]3CC(=O)[C@H]21 [Comparative Example 2, reference compound]	0	–	–

More lines, main results first:

inhibition [1, 3] [%]	Structure (SMILES)	inhibition [1] [%]	other results
97.1 ± 2.49	CC[Si](CC)(CC)O[C@@H]1C[C@H](C)C[C@@H]2[C@@H]1C[C@H](O[Si](C)(C)C(C)(C)C)[C@@H]1[C@](C)(CO)C[C@H](O)C[C@@]21C [Example 1]	–	inhibition at 40 µM (PP2A): 11%; IC50 [2]: 21000 ± 1700 nM; Ki (PPM1D): 590 ± 50 nM; IC50 (PPM1D): 430 ± 40 nM
92.7 ± 1.4	CCOC(=O)C=CC12CCC(C)(C1CO[Si](C(C)C)(C(C)C)C(C)C)C2(C)C (stereo not shown) [Example 5]	–	inhibition at 40 µM (PP2A): 14%; IC50 [2]: 28000 ± 4200 nM; Ki (PPM1D): 2600 ± 100 nM; IC50 (PPM1D): 930 ± 40 nM
0	CCOC(=O)/C=C/C12CC[C@](C)([C@@H]1CO)C2(C)C [Comparative Example 3, reference compound]	–	–
0	C=C1C2(/C=C/CO)CC[C@@]1(C)C2(C)C [Comparative Example 4, reference compound]	–	–
